# Measured values: ChEMBL document CHEMBL5356972, “Design and synthesis of cantharidin derivative DCZ5418 as a TRIP13 inhibitor with anti-multiple myeloma activity in vitro and in vivo” (Bioorg Med Chem Lett, 2024)
# Calls of active or inactive are those of the source. No cut-off for these calls is given here.
# Columns and labels:
# [1] = Inhibition of cell growth in human H929R cells at 10 uM incubated for 48 hrs by CCK-8 assay relative to control; type: functional
# [2] = target: T1, Pachytene checkpoint protein 2 homolog (Homo sapiens) (UniProt Q15645); test: Binding affinity to TRIP13 (unknown origin) by SPR analysis
# T1 sequence (whole entry): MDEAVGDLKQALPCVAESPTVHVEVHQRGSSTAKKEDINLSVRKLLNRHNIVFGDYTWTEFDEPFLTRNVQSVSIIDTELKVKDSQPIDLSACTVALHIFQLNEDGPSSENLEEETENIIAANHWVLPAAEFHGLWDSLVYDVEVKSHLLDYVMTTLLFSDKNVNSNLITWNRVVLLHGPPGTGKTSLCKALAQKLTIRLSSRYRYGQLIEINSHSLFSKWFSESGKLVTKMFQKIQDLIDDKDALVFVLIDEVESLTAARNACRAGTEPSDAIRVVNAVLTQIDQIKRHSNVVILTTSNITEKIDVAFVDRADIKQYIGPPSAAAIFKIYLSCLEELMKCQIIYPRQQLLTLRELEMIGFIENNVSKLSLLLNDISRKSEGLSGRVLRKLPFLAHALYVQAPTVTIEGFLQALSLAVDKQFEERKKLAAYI
# [3] = target: T2, Pachytene checkpoint protein 2 homolog (Homo sapiens, UniProt Q15645); test: Binding affinity to TRIP13 (unknown origin) assessed as dissociation constant by SPR analysis
# T2 sequence (Q15645 whole entry): T1 sequence (whole entry)
# [4] = system: H929R; test: Inhibition of cell growth in human H929R cells at 10 uM incubated for 48 hrs by CCK-8 assay; type: functional, cell-based
# [5] = Toxicity in immunodeficient nude mouse xenografted with human H929R cells assessed as reduction in body weight at 15 mg/kg, ip administered once daily for 16 days; type: organism-based; settings: in vivo, 384 h, time 16 day
# [6] = Inhibition of cell growth in human OCI-My5 cells incubated for 48 hrs by CCK-8 assay; settings: OCI-My5, 48 h
# [7] = Acute toxicity in mouse assessed as kidney injury at 50 mg/kg, ip; type: organism-based; settings: in vivo
# [8] = Acute toxicity in mouse assessed as heart injury at 50 mg/kg, ip; type: organism-based; settings: in vivo
# [9] = Inhibition of cell growth in human H929R cells incubated for 48 hrs by CCK-8 assay
# [10] = Acute toxicity in mouse assessed as abnormal behaviors at 50 mg/kg, ip; type: organism-based; settings: in vivo
# [11] = Inhibition of cell growth in human CD138-positive cells at 20 uM incubated for 48 hrs by CCK-8 assay relative to control; type: functional
# [12] = Acute toxicity in mouse assessed as liver injury at 50 mg/kg, ip; type: organism-based; settings: in vivo
# [13] = Inhibition of cell growth in human ARP-1 cells incubated for 48 hrs by CCK-8 assay; settings: ARP-1, 48 h
# [14] = system: H929R; test: Antitumor activity against human H929R cells xenografted in immunodeficient nude mouse assessed as reduction in tumor growth at 15 mg/kg, ip administered once daily for 16 days by vernier caliper method; type: functional, organism-based; settings: time 16.0 day
# [15] = Toxicity in immunodeficient nude mouse xenografted with human H929R cells assessed as reduction in body weight at 25 mg/kg, ip administered once daily for 16 days; type: organism-based; settings: in vivo, 384 h, time 16 day
# [16] = Acute toxicity in mouse assessed as reduction in spontaneous activities at 50 mg/kg, ip; type: organism-based; settings: in vivo
smiles,measurement,setting,value
CN1CCN(C(=O)C2C3C=C(Br)C(O3)C2C(=O)Nc2ccc(Cc3ccncc3)cc2)CC1 (stereo unspecified),inhibition at 10 µM,[1],43.1%
O=C1C2C3CCC(C3)C2C(=O)N1c1ccc(Cc2ccncc2)cc1 (stereo unspecified),Activity,[2],inactive
same,inhibition at 10 µM,[1],41.4%
O=C(NCCCO)C1C2C=CC(O2)C1C(=O)Nc1ccc(Cc2ccncc2)cc1 (stereo unspecified),inhibition at 10 µM,[1],21.2%
O=C1C2C3C=C(Br)C(O3)C2C(=O)N1c1ccc(Cc2ccncc2)cc1 (stereo unspecified),Kd,[3],149 µM
same,inhibition at 10 µM,[1],51.7%
CN1CCN(C(=O)C2C3C=CC(O3)C2C(=O)Nc2ccc(Cc3ccncc3)cc2)CC1 (stereo unspecified),inhibition at 10 µM,[1],29.8%
O=C(NCCCO)C1CCCCC1C(=O)Nc1ccc(Cc2ccncc2)cc1 (stereo unspecified),inhibition at 10 µM,[1],6.9%
O=C1C2C3C=C(Br)C(O3)C2C(=O)N1c1ccc(Oc2ccncc2)cc1 (stereo unspecified),inhibition,[4],Active
C[C@@]12C(=O)N(c3ccc(Cc4ccncc4)cc3)C(=O)[C@]1(C)[C@H]1CC[C@@H]2O1.Cl,Activity,[5],Non-Toxic
C[C@@]12C(=O)N(c3ccc(Cc4ccncc4)cc3)C(=O)[C@]1(C)[C@H]1CC[C@@H]2O1 [listing 1 of 2 here],IC50,[6],4.32 µM
same,Activity,[7],Non-Toxic
same,Activity,[8],Non-Toxic
same,IC50,[9],8.47 µM
same,Activity,[10],Non-Toxic
same,inhibition at 10 µM,[1],49.3%
same,inhibition at 20 µM,[11],57%
same,Activity,[12],Non-Toxic
same,IC50,[13],3.18 µM
C[C@@]12C(=O)N(c3ccc(Cc4ccncc4)cc3)C(=O)[C@]1(C)[C@H]1CC[C@@H]2O1 [listing 2 of 2 here],Activity,[14],Active
CN1CCN(C(=O)C2CCCCC2C(=O)Nc2ccc(Cc3ccncc3)cc2)CC1 (stereo unspecified),inhibition at 10 µM,[1],17.2%
CN1CCN(C(=O)C2CCCCC2C(=O)Nc2ccc(Oc3ccncc3)cc2)CC1 (stereo unspecified),inhibition,[4],Active
O=C1C2C3C=CC(C4CC34)C2C(=O)N1c1ccc(Cc2ccncc2)cc1 (stereo unspecified),IC50,[6],5.12 µM
same,Activity,[15],Non-Toxic
same,IC50,[9],1.35 µM
same,inhibition at 10 µM,[1],28.2%
same,IC50,[13],4.13 µM
C[C@@]12C(=O)OC(=O)[C@]1(C)[C@H]1CC[C@@H]2O1 [CANTHARIDIN],Activity,[7],Toxic
same,Activity,[2],inactive
same,Activity,[16],Toxic
same,Activity,[12],Toxic
